Results reported in publication PMC9537276, “A pathway for chitin oxidation in marine bacteria” (Nature Communications, 2022).

Columns and labels:
OngC = biological target: T1, OngC (Pseudoalteromonas prydzensis, UniProt Z9U939ZVG8); assay: ammonia release assay kit; Q-TOF-MS; type: biochemical; conditions: 10 mM substrate (made in situ by OngB from GlcNAc1A), 10 mM Bis-Tris-HCl pH 7.5, 25 °C
T1 construct: full length, C-terminal His tag, pET22b, E. coli BL21 (DE3)
T1 sequence (Z9U939ZVG8 1-415): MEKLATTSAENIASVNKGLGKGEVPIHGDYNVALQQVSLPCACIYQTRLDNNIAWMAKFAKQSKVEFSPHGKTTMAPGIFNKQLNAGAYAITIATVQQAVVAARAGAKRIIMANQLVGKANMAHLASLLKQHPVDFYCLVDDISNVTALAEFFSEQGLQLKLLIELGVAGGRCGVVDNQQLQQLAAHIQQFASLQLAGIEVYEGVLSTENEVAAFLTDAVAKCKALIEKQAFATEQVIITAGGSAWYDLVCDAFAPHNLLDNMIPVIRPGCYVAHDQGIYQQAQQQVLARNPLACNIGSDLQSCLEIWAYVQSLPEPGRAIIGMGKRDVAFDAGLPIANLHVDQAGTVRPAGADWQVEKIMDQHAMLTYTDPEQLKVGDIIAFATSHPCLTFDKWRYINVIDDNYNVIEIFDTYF

OngB = biological target: T2, OngB (Pseudoalteromonas prydzensis, UniProt A0A7V1CY72); assay: acetate release assay kit; Q-TOF-MS; type: biochemical; conditions: 25 mM substrate, 10 mM Bis-Tris-HCl pH 7.5, 25 °C, 30 min
T2 construct: gene ENH88_07920; full length, C-terminal His tag, pET22b, E. coli BL21 (DE3)
T2 sequence (A0A7V1CY72 1-489): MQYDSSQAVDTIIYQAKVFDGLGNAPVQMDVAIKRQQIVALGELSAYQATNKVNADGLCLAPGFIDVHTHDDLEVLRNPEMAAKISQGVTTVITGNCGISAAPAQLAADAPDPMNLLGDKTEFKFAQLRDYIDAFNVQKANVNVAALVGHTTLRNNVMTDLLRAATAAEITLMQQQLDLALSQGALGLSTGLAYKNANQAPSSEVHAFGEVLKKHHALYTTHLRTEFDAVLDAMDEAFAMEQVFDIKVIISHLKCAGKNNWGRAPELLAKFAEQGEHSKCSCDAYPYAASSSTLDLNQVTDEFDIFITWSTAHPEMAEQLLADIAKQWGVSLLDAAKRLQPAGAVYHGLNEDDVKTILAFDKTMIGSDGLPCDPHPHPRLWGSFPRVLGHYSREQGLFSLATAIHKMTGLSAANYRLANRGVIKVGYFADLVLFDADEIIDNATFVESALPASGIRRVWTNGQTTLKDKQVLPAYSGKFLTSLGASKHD

| Compound | ammonia release assay kit; Q-TOF-MS (OngC) | acetate release assay kit; Q-TOF-MS (OngB) |
| --- | --- | --- |
| N[C@@H](C(=O)O)[C@@H](O)[C@H](O)[C@H](O)CO [GlcN1A, 2-(amino)-2-deoxy-D-gluconic acid] | OngC can deaminate GlcN1A to produce ammonia and KDG |  |
| CC(=O)N[C@@H](C(=O)O)[C@@H](O)[C@H](O)[C@H](O)CO [GlcNAc1A, 2-(acetylamino)−2-deoxy-D-gluconic acid] |  | Only OngB was shown to act on GlcNAc1A to produce acetate |
